Like-named read-outs stand apart in the source and are kept apart here. Starred links: 1 amine or outer side, 2 acyl side, 3 side chain; linkers in the order of their positions; H or OH if unused. Non-standard residues stand in square brackets, D forms with d. Groups on a side chain read outwards from the residue. *: point of attachment. C18 diacid = O=C(O)CCCCCCCCCCCCCCCCC(=O)*; γGlu = O=C(O)[C@H](CCC(=O)[*:2])N[*:1]; αMe4Pal = C[C@](N)(Cc1ccncc1)C(=O)O; αMeY = C[C@](N)(Cc1ccc(O)cc1)C(=O)O; 4Pal = N[C@@H](Cc1ccncc1)C(=O)O; αMeL = CC(C)C[C@](C)(N)C(=O)O; Orn = NCCC[C@H](N)C(=O)O; Aib = CC(C)(N)C(=O)O
Legend:
Type in all cases: cell-based
[1] = target: T1, hGLP-1R (Homo sapiens, UniProt P43220); test: Functional cAMP activity in the presence of 1% HSA
[2] = target: human GcgR (Homo sapiens, UniProt P47871); test: Functional cAMP activity in the presence of 1% HSA
[3] = target: T1, hGLP-1R; test: Functional cAMP activation in the presence of 0.1% casein (no HSA);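 as to Relative cAMP EC50, hGIPR: intracellular cAMP rise after 30 min at 37 °C read by HTRF against a standard curve, scaled between buffer alone (0%) and top control ligand concentration (100%), four-parameter fit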;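 as to Relative cAMP EC50, hGLP-1R: intracellular cAMP rise after 30 min at 37 °C read by HTRF, normalized between buffer only (0%) and maximal control ligand (100%), four-parameter variable-slope fit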
[4] = target: T2, hGIPR (Homo sapiens, UniProt P48546); test: as above;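 also: intracellular cAMP rise after 30 min at 37 °C read by HTRF against a standard curve, scaled between buffer alone (0%) and top control ligand concentration (100%), four-parameter fit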
T2 sequence (P48546 22-466): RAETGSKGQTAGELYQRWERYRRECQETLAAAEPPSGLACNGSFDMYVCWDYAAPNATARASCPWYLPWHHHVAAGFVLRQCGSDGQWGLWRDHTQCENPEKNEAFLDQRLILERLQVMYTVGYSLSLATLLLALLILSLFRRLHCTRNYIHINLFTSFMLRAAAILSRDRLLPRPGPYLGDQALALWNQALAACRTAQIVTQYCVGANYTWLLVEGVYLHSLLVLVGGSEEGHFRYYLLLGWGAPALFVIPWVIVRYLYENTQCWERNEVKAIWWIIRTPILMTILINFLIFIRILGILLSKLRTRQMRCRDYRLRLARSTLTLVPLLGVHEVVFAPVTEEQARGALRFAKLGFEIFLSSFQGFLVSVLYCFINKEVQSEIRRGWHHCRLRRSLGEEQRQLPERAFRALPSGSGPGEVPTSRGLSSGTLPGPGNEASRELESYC

[5] = target: T2, hGIPR; test: Functional cAMP activity in the presence of 1% HSA
[6] = target: hGcgR (Homo sapiens, UniProt P47871); test: Functional cAMP activation in the presence of 0.1% casein (no HSA);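 also: intracellular cAMP rise after 30 min at 37 °C, read by HTRF against a cAMP standard curve, scaled from buffer only (0%) to maximal control ligand response (100%)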
[7] = read-out: cAMP Rel EC50, hGLP-1R
[8] = in the presence of 0.1% casein (no HSA), geometric mean, read-out: Relative cAMP EC50, hGLP-1R
[9] = in the presence of 0.1% casein (no HSA), geometric mean, read-out: Relative cAMP EC50, hGIPR
[10] = in the presence of 0.1% casein (no HSA), geometric mean, read-out: Relative cAMP EC50, hGcgR

T1 sequence (P43220 24-463): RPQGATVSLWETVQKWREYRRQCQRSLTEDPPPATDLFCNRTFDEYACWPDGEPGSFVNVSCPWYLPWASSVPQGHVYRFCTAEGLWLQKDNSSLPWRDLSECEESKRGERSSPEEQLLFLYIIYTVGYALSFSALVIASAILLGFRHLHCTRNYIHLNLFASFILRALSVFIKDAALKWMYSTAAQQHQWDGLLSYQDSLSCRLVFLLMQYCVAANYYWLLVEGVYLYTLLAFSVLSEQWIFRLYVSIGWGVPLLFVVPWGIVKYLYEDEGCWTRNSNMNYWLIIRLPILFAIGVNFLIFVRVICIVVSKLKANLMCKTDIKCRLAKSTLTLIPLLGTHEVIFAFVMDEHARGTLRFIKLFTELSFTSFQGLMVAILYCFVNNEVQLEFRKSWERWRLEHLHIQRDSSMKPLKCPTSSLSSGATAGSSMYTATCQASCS
human GcgR, sequence (P47871 26-477): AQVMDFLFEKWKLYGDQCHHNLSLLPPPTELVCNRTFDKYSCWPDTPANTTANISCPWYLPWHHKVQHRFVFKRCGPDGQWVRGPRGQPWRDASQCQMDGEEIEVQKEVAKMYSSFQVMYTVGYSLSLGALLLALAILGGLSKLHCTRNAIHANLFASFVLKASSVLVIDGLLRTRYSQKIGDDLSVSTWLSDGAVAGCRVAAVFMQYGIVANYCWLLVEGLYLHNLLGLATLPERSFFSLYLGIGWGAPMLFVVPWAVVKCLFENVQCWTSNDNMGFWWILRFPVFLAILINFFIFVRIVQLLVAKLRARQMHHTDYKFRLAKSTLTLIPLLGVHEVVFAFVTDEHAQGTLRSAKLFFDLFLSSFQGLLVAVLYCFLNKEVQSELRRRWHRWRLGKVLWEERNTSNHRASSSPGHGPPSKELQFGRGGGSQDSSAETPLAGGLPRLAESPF
hGcgR, sequence (P47871 26-477): as above

Row | Substance | EC50 [1, 7] | EC50 ([2]; read-out: cAMP Rel EC50, hGcgR) | EC50 [3, 8] | EC50 [4, 9] | EC50 ([5]; read-out: cAMP Rel EC50, hGIPR) | EC50 [6, 10] | EC50 ([1]; HEK-293 clonal cell line, in the presence of 1% HSA, geometric mean of relative EC50, read-out: cAMP Rel EC50, hGLP-1R) | EC50 ([2]; HEK-293 clonal cell line, in the presence of 1% HSA, geometric mean of relative EC50, read-out: cAMP Rel EC50, hGcgR) | EC50 ([5]; HEK-293 clonal cell line, in the presence of 1% HSA, geometric mean of relative EC50, read-out: cAMP Rel EC50, hGIPR) | EC50 [1] | EC50 [2] | EC50 [3] | EC50 [4] | EC50 [5] | EC50 [6]
1 | H-Y[Aib]QGTFTSD[4Pal]S[Orn][αMeL]LDKK([γGlu-γGlu-γGlu-C18 diacid])AQ[αMe4Pal]AFIEYLIE[Aib]GPSSGAPPPSGS-NH2 [Example 866] | 483 nM | 669 nM | 4.01 nM | 0.148 nM | 23.8 nM | 4.48 nM | – | – | – | – | – | – | – | – | –
2 | H-Y[Aib]QGTFTSD[4Pal]S[Orn][αMeL]LD[Orn]K([Glu-Glu-γGlu-C18 diacid])AQ[Aib]AFIE[αMeY]LLEGGPSSGAPPPSGSEE-NH2 [Example 1067] | 2610 nM | 1860 nM | 17.6 nM | 0.471 nM | 86.4 nM | 12.6 nM | – | – | – | – | – | – | – | – | –
3 | H-Y[Aib]QGTFTSD[4Pal]S[Orn][αMeL]LD[Orn]K([Glu-γGlu-C18 diacid])AQ[Aib]AFIE[αMeY]LLEGGPSSGAPPPSGSEE-NH2 [Example 1066] | 1850 nM | 4260 nM | 9.8 nM | 0.446 nM | 69.9 nM | 25.4 nM | – | – | – | – | – | – | – | – | –
4 | H-Y[Aib]QGTFTSD[4Pal]S[Orn][αMeL]LD[Orn]K([dE-γGlu-C18 diacid])AQ[αMe4Pal]AFIEYLIAGGPSSGAPPPSGSEE-NH2 [Example 1063] | 626 nM | 2290 nM | 6.96 nM | 0.318 nM | 26.6 nM | 10.6 nM | – | – | – | – | – | – | – | – | –
5 | H-Y[Aib]QGTFTSD[4Pal]S[Orn][αMeL]LD[Orn]K([γGlu-γGlu-C18 diacid])AQ[Aib]AFIEYLLAGGPSSGAPPPSGSEE-NH2 [Example 1069] | 1290 nM | 2160 nM | 8.87 nM | 0.417 nM | 39.5 nM | 21.2 nM | – | – | – | – | – | – | – | – | –
6 | H-Y[Aib]QGTFTSD[4Pal]S[Orn][αMeL]LD[Orn]K([γGlu-γGlu-C18 diacid])AQ[Aib]AFIE[αMeY]LLEGGPSSGAPPPSGSEE-NH2 [Example 1064] | 912 nM | 1940 nM | 7.89 nM | 0.556 nM | 62.5 nM | 13.7 nM | – | – | – | – | – | – | – | – | –
7 | H-Y[Aib]QGTFTSD[4Pal]S[Orn][αMeL]LD[Orn]K([γGlu-γGlu-C18 diacid])AQ[αMe4Pal]AFIEYLIAGGPSSGEPPPSGE-NH2 [Example 983] | 207 nM | 576 nM | 2.35 nM | 0.289 nM | 19.4 nM | 4.75 nM | – | – | – | – | – | – | – | – | –
8 | H-Y[Aib]QGTFTSD[4Pal]S[Orn][αMeL]LD[Orn]K([γGlu-γGlu-C18 diacid])AQ[αMe4Pal]AFIEYLIAGGPSSGEPPPSGTE-NH2 [Example 984] | 160 nM | 409 nM | 2.07 nM | 0.232 nM | 23.5 nM | 4.5 nM | – | – | – | – | – | – | – | – | –
9 | H-Y[Aib]QGTFTSD[4Pal]S[Orn][αMeL]LD[Orn]K([γGlu-γGlu-C18 diacid])AQ[αMe4Pal]AFIEYLIAGGPSSGEPPPSGTEE-NH2 [Example 985] | 217 nM | 374 nM | 2.93 nM | 0.34 nM | 24 nM | 5.41 nM | – | – | – | – | – | – | – | – | –
10 | H-Y[Aib]QGTFTSD[4Pal]S[Orn][αMeL]LD[Orn]K([γGlu-γGlu-C18 diacid])AQ[αMe4Pal]AFIEYLIE[Aib]GPSSGAPPPSGS-NH2 [Example 939] | 287 nM | 423 nM | 2.75 nM | 0.143 nM | 14.1 nM | 2.41 nM | – | – | – | – | – | – | – | – | –
11 | H-Y[Aib]QGTFTSD[4Pal]S[Orn][αMeL]LD[Orn]K([γGlu-γGlu-C18 diacid])AQ[αMe4Pal]AFIEYLLAGGPSSGAPPPSGSEE-NH2 [Example 1068] | 1330 nM | 295 nM | 11.6 nM | 0.211 nM | 20.2 nM | 4.8 nM | – | – | – | – | – | – | – | – | –
12 | H-Y[Aib]QGTFTSD[4Pal]S[Orn][αMeL]LD[Orn]K([γGlu-γGlu-C18 diacid])AQ[αMe4Pal]AFIE[αMe4Pal]LIE[Aib]GPSSGEPPPSGS-NH2 [Example 991] | 315 nM | 405 nM | 3.91 nM | 0.119 nM | 14.8 nM | 3.03 nM | – | – | – | – | – | – | – | – | –
13 | H-Y[Aib]QGTFTSD[4Pal]S[Orn][αMeL]LD[Orn]K([γGlu-γGlu-C18 diacid])AQ[αMe4Pal]AFIE[αMeY]LIEGGPSSGAPPPSGS-NH2 [Example 1013] | 137 nM | 285 nM | 0.449 nM | 0.208 nM | 22.6 nM | 2 nM | – | – | – | – | – | – | – | – | –
14 | H-Y[Aib]QGTFTSD[4Pal]S[Orn][αMeL]LD[Orn]K([γGlu-γGlu-C18 diacid])AQ[αMe4Pal]EFIEYLLAGGPSSGAPPPSGSEE-NH2 [Example 1003] | 1950 nM | 371 nM | 42.4 nM | 0.272 nM | 15.9 nM | 5.07 nM | – | – | – | – | – | – | – | – | –
15 | H-Y[Aib]QGTFTSD[4Pal]S[Orn][αMeL]LD[Orn]K([γGlu-γGlu-C18 diacid])AQ[αMe4Pal]EFIE[αMeY]LIEGGPSSGAPPPSGSEE-NH2 [Example 973] | 1140 nM | 2270 nM | 6.1 nM | 0.503 nM | 60.1 nM | 17.6 nM | – | – | – | – | – | – | – | – | –
16 | H-Y[Aib]QGTFTSD[4Pal]S[Orn][αMeL]LD[Orn]K([γGlu-γGlu-C18 diacid])AQ[αMe4Pal]EFIE[αMeY]LLAGGPSSGAPPPSGSEE-NH2 [Example 996] | – | – | 98.1 nM | 0.2 nM | – | 14.9 nM | 4810 nM | 1160 nM | 11.2 nM | – | – | – | – | – | –
17 | H-Y[Aib]QGTFTSD[4Pal]S[Orn][αMeL]LD[Orn]K([γGlu-γGlu-C18 diacid])AQ[αMe4Pal]EFIE[αMeY]LLEGGPSSGAPPPSGSEE-NH2 [Example 976] | 2860 nM | 848 nM | 21.8 nM | 0.441 nM | 82.7 nM | 8.75 nM | – | – | – | – | – | – | – | – | –
18 | H-Y[Aib]QGTFTSD[4Pal]S[Orn][αMeL]LD[Orn]K([γGlu-γGlu-C18 diacid])AQ[αMe4Pal]QFIEYLIAGGPSSGAPPPSGSEE-NH2 [Example 1000] | 279 nM | 501 nM | 3.55 nM | 0.176 nM | 15.5 nM | 4.62 nM | – | – | – | – | – | – | – | – | –
19 | H-Y[Aib]QGTFTSD[4Pal]S[Orn][αMeL]LD[Orn]K([γGlu-γGlu-C18 diacid])AQ[αMe4Pal]QFIEYLLAGGPSSGAPPPSGSEE-NH2 [Example 1002] | 1290 nM | 197 nM | 9.09 nM | 0.119 nM | 11.6 nM | 1.89 nM | – | – | – | – | – | – | – | – | –
20 | H-Y[Aib]QGTFTSD[4Pal]S[Orn][αMeL]LD[Orn]K([γGlu-γGlu-C18 diacid])AQ[αMe4Pal]QFIE[αMeY]LLEGGPSSGAPPPSGSEE-NH2 [Example 975] | – | – | – | – | – | – | – | – | – | 1810 nM | 374 nM | 10.2 nM | 0.344 nM | 30.1 nM | 2.61 nM
21 | H-Y[Aib]QGTFTSD[4Pal]S[Orn][αMeL]LD[Orn]K([γGlu-γGlu-C18 diacid])AQ[αMe4Pal][Orn]FIEYLLAGGPSSGAPPPSGSEE-NH2 [Example 1004] | 973 nM | 237 nM | 9.34 nM | 0.519 nM | 35.4 nM | 2.67 nM | – | – | – | – | – | – | – | – | –
22 | H-Y[Aib]QGTFTSD[4Pal]S[Orn][αMeL]LD[Orn]K([γGlu-γGlu-C18 diacid])AQ[αMe4Pal][Orn]FIE[αMeY]LIEGGPSSGAPPPSGSEE-NH2 [Example 974] | 283 nM | 870 nM | 1.57 nM | 0.607 nM | 80.9 nM | 3.7 nM | – | – | – | – | – | – | – | – | –
